Assay results reported in patent US8044186B2, “Heterologous production of capreomycin and generation of new capreomycin derivatives through metabolic engineering” (priority 2007, dated 2011).
In brackets after ≈: the same amount, converted by molar mass.

Key:
[1] = system: St. lividans 1326/pSE34-cmnU (cmnU+); experiment: MIC in St. lividans 1326 expressing cmnU; format: cell-based, Streptomyces lividans
Protocol: (§1) Analysis of cmnU in St. lividans 1326. The XbaI/HindIII fragment of pET22b-cmnU was cloned into the corresponding sites of pSE34 (29) to generate pSE34-cmnU. This vector construct results in the constitutive expression of cmnU when pSE34-cmnU is introduced into St. lividans 1326. pSE34-cmnU and pSE34 were introduced into St. lividans 1326 by transformation, and successful transformants were selected by using an overlay of thiostrepton (8 μg/ml). Transformants were streaked for isolation on ISP2 medium containing thiostrepton. To test for CMN or kanamycin resistance, 10^5 spores of St. lividans 1326 containing either pSE34-cmnU or pSE34 were plated onto ISP2 plates supplemented with CMN (25-1600 μg/ml) or kanamycin (3-1600 μg/ml). The plates were incubated at 30° C. for 2 days, and the minimum inhibitory concentration was defined as the lowest antibiotic concentration at which no growth was observed.

[2] = system: E. coli DH5α/pBAD33/pLJ102 (cmnU−, tlyA−); experiment: MIC in E. coli, cmnU not expressed, tlyA not expressed; format: cell-based, Escherichia coli
Text: (§2) Analysis of cmnU in E. coli. The gene cmnU was PCR amplified from pCMN-P4C8RF using the following primers: CmnU-NdeI (5′-[…]-3′) (SEQ ID NO:37) and CmnU-HindIII (5′-[…]-3′) (SEQ ID NO:38). The amplicon was cloned into pCR-BluntII-TOPO according to manufacturer's instructions (Invitrogen), resulting in pCR-BluntII-TOPO-cmnU. The NdeI/HindIII fragment of pCR-Blunt-TOPO-cmnU containing cmnU was subcloned into the corresponding restriction sites of pET22b (Novagen), resulting in pET22b-cmnU. The XbaI/HindIII fragment of pET22b-cmnU containing the optimized ribosome-binding site and cmnU was subcloned into the corresponding sites of pBAD33 (14) resulting in pBAD33-cmnU. This construct results in the expression of cmnU under the control of the arabinose promoter of pBAD33. pBAD33 and pBAD33-cmnU were transformed into DH5α strains containing either pLJ102 (empty vector) or pSJ101 (tlyA inserted into pLJ102 and expression controlled by IPTG induction) (18). Each of these strains was grown in LB medium containing chloramphenicol (15 μg/ml) and ampicillin (100 μg/ml) for plasmid maintenance, isopropyl-beta-D-thiogalactopyranoside (40 μg/ml) and arabinose (2% w/v) for induced expression of tlyA and cmnU, respectively, and varying concentrations of CMN (12.5-100 μg/ml) or kanamycin (6-96 μg/ml). […]

[3] = system: E. coli DH5α/pBAD33/pSJ101 (cmnU−, tlyA+); experiment: MIC in E. coli expressing tlyA; format: cell-based, Escherichia coli
Text: as §2

[4] = system: E. coli DH5α/pBAD33-cmnU/pSJ101 (cmnU+, tlyA+); experiment: MIC in E. coli expressing cmnU and tlyA; format: cell-based, Escherichia coli
Text: as §2

[5] = system: E. coli DH5α/pBAD33-cmnU/pLJ102 (cmnU+, tlyA−); experiment: MIC in E. coli expressing cmnU; format: cell-based, Escherichia coli
Text: as §2

[6] = system: St. lividans 1326/pSE34 (cmnU−); experiment: MIC in St. lividans 1326 with empty vector; format: cell-based, Streptomyces lividans
Protocol: as §1

[7] = Streptomyces lividans, 48 h, read-out: minimum inhibitory concentration (MIC)
[8] = Escherichia coli, 16 h, read-out: minimum inhibitory concentration (MIC)

Compound | minimum inhibitory concentration (MIC) ([1]; St. lividans 1326/pSE34-cmnU (cmnU+), lowest concentration with no growth on ISP2 plates after 2 days at 30° C., three separate experiments) [µg/mL] | minimum inhibitory concentration (MIC) ([2]; E. coli DH5α/pBAD33/pLJ102 (cmnU−, tlyA−), lowest concentration with OD650 < 0.1 after 16 hrs at 37° C. in LB medium, three separate experiments) [µg/mL] | minimum inhibitory concentration (MIC) ([3]; E. coli DH5α/pBAD33/pSJ101 (cmnU−, tlyA+), lowest concentration with OD650 < 0.1 after 16 hrs at 37° C. in LB medium, three separate experiments) [µg/mL] | minimum inhibitory concentration (MIC) ([4]; E. coli DH5α/pBAD33-cmnU/pSJ101 (cmnU+, tlyA+), lowest concentration with OD650 < 0.1 after 16 hrs at 37° C. in LB medium, three separate experiments) [µg/mL] | minimum inhibitory concentration (MIC) ([5]; E. coli DH5α/pBAD33-cmnU/pLJ102 (cmnU+, tlyA−), lowest concentration with OD650 < 0.1 after 16 hrs at 37° C. in LB medium, three separate experiments) [µg/mL] | minimum inhibitory concentration (MIC) ([6]; St. lividans 1326/pSE34 (cmnU−), lowest concentration with no growth on ISP2 plates after 2 days at 30° C., three separate experiments) [µg/mL] | MIC [1, 7] [µg/mL] | MIC [2, 8] [µg/mL] | MIC [3, 8] [µg/mL] | MIC [4, 8] [µg/mL] | MIC [5, 8] [µg/mL] | MIC [6, 7] [µg/mL]
capreomycin [CMN] | >1600 | 50 | 25 | 50 | 100 | 200 |  |  |  |  |  | 
NC[C@H]1O[C@H](O[C@H]2[C@H](O)[C@@H](O[C@H]3O[C@H](CO)[C@@H](O)[C@H](N)[C@H]3O)[C@H](N)C[C@@H]2N)[C@H](O)[C@@H](O)[C@@H]1O [Kanamycin, kanamycin] |  |  |  |  |  |  | > 1600 | 12 (≈ 24.8 µM) | 12 (≈ 24.8 µM) | 24 (≈ 49.5 µM) | 96 (≈ 198 µM) | 6 (≈ 12.4 µM)
